The values that follow come from US11339128B2 (Firmenich Incorporated, priority 2014, dated 2022).

In the experiment the target is T1, T1R2/T1R3 taste receptor (Homo sapiens, UniProt Q7RTX0+Q8TE23).
T1 sequence (Q8TE23 20-839): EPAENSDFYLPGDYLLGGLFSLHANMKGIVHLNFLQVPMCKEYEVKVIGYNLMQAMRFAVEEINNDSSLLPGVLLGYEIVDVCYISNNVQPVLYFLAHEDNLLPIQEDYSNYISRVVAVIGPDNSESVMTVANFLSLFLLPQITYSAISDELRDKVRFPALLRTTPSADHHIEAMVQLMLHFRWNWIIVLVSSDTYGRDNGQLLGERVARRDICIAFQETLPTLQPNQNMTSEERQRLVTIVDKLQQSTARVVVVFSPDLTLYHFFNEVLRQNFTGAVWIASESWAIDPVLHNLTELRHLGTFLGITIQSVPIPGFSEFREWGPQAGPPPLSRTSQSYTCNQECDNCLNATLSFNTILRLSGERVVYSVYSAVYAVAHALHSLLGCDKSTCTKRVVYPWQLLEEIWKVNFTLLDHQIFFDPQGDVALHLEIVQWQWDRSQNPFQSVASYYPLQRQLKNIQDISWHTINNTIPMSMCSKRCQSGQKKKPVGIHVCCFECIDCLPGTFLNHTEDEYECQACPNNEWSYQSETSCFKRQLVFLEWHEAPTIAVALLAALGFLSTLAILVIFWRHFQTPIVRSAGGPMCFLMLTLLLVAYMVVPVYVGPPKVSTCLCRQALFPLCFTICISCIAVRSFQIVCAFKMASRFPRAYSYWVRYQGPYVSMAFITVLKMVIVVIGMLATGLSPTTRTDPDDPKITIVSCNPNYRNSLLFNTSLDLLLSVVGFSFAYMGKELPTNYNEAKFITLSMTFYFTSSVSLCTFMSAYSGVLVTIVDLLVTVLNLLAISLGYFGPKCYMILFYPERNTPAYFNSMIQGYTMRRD
T1 sequence (Q7RTX0 21-852): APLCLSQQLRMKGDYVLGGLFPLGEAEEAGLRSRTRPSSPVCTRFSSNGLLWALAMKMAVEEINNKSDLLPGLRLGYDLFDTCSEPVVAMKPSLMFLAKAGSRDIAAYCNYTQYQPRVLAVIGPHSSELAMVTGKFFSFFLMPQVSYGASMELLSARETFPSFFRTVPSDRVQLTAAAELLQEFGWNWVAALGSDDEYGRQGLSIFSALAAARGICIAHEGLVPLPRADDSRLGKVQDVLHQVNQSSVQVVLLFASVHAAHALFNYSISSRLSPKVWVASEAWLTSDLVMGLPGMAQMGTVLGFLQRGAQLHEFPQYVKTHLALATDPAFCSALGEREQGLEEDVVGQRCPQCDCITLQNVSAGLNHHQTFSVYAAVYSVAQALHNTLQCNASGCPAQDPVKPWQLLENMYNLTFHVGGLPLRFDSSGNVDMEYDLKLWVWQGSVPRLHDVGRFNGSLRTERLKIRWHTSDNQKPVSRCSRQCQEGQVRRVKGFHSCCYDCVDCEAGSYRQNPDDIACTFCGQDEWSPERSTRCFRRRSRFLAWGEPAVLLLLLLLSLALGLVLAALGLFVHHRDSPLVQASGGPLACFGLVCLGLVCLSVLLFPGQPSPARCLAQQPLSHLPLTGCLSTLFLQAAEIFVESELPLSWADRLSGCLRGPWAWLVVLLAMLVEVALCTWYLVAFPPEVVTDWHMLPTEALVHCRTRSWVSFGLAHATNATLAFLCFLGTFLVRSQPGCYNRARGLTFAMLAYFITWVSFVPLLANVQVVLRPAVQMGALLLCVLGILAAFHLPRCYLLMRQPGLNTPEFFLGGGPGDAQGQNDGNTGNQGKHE
Kind of experiment: Receptor-based assay: sweetener EC50 enhancement ratio with and without test compound. Conditions: for Sucrose Enhancement EC50 Ratio: sweetener sucrose; for Sucralose Enhancement EC50 Ratio: sweetener sucralose. The class given is cell-based. The protocol: Potencies (EC50 values) for the sweeteners sucrose, sucralose, and fructose were measured against the T1R2/T1R3 taste receptor. EC50 was determined using the sweetener alone and in the presence of 1 μM, 3 μM, 10 μM, or 50 μM of test compound. EC50 ratios were calculated by the ratio of potency with and without the test compound. An “A” value indicates an enhancement ratio of greater than 1 and less than 10. A “B” value indicates an enhancement ratio from 10 to 20. A “C” value indicates an enhancement ratio greater than 20.

With `COCC(=O)N[C@H]1CC[C@H](Oc2cccc3nc(C)c(C(=O)O)c(N)c23)CC1` [Compound 304], the “Sucrose Enhancement EC50 Ratio” value reads like this: (1 μM test compound) “A (an enhancement ratio of greater than 1 and less than 10)”; (3 μM test compound) “B (an enhancement ratio from 10 to 20)”; (10 μM test compound) “A (an enhancement ratio of greater than 1 and less than 10)”.

`Cc1nc2cccc(O[C@H]3CC[C@H](NC(=O)COC(C)(C)C)CC3)c2c(N)c1C(=O)O` [Compound 308]: the “Sucrose Enhancement EC50 Ratio” value (1 μM test compound) was “B (an enhancement ratio from 10 to 20)”.

`Cc1nc2cccc(O[C@H]3CC[C@H](NC(=O)CO[C@H]4CC[C@H](C)CC4)CC3)c2c(N)c1C(=O)O` [Compound 312]: the “Sucrose Enhancement EC50 Ratio” value reads like this: (1 μM test compound) “A (an enhancement ratio of greater than 1 and less than 10)”; (3 μM test compound) “A (an enhancement ratio of greater than 1 and less than 10)”; (10 μM test compound) “B (an enhancement ratio from 10 to 20)”.

Turning to `Cc1nc2cccc(O[C@H]3CC[C@H](NC(=O)COCC4CC4)CC3)c2c(N)c1C(=O)O` [Compound 313], the “Sucrose Enhancement EC50 Ratio” value by setting is: (1 μM test compound) “A (an enhancement ratio of greater than 1 and less than 10)”; (3 μM test compound) “C (an enhancement ratio greater than 20)”; (10 μM test compound) “A (an enhancement ratio of greater than 1 and less than 10)”.

As to `Cc1nc2cccc(O[C@H]3CC[C@H](NC(=O)COC4CCOCC4)CC3)c2c(N)c1C(=O)O` [Compound 314], the “Sucrose Enhancement EC50 Ratio” value (1 μM test compound) is given as “B (an enhancement ratio from 10 to 20)”. Further, under “3 μM test compound”, the “Sucralose Enhancement EC50 Ratio” value is on record as “B (an enhancement ratio from 10 to 20)”.

With `CCOC(C)C(=O)N[C@H]1CC[C@H](Oc2cccc3nc(C)c(C(=O)O)c(N)c23)CC1` (some centres unmarked) [Compound 315], the “Sucrose Enhancement EC50 Ratio” value was “B (an enhancement ratio from 10 to 20)” (1 μM test compound), “B (an enhancement ratio from 10 to 20)” (3 μM test compound) and “C (an enhancement ratio greater than 20)” (10 μM test compound).

For `CCOC(C)(C)C(=O)N[C@H]1CC[C@H](Oc2cccc3nc(C)c(C(=O)O)c(N)c23)CC1` [Compound 316], the “Sucrose Enhancement EC50 Ratio” value by setting is: (1 μM test compound) “A (an enhancement ratio of greater than 1 and less than 10)”; (3 μM test compound) “A (an enhancement ratio of greater than 1 and less than 10)”; (10 μM test compound) “B (an enhancement ratio from 10 to 20)”.

For the compound `COCCC(=O)N[C@H]1CC[C@H](Oc2cccc3nc(C)c(C(=O)O)c(N)c23)CC1` [Compound 317], the “Sucrose Enhancement EC50 Ratio” value was “A (an enhancement ratio of greater than 1 and less than 10)” (1 μM test compound); “A (an enhancement ratio of greater than 1 and less than 10)” (3 μM test compound); “B (an enhancement ratio from 10 to 20)” (10 μM test compound).

Take `CCSCC(=O)N[C@H]1CC[C@H](Oc2cccc3nc(C)c(C(=O)O)c(N)c23)CC1` [Compound 318]: the “Sucrose Enhancement EC50 Ratio” value was “A (an enhancement ratio of greater than 1 and less than 10)” (1 μM test compound); “A (an enhancement ratio of greater than 1 and less than 10)” (3 μM test compound); “B (an enhancement ratio from 10 to 20)” (10 μM test compound). In addition, the “Sucralose Enhancement EC50 Ratio” value (10 μM test compound) was “B (an enhancement ratio from 10 to 20)”. For the same compound, the “Fructose Enhancement EC50 Ratio” value (50 μM test compound, sweetener fructose) was “A (an enhancement ratio of greater than 1 and less than 10)”.

For the compound `Cc1nc2cccc(O[C@H]3CC[C@H](NC(=O)CCCC(C)C)CC3)c2c(N)c1C(=O)O` [Compound 319], the “Sucrose Enhancement EC50 Ratio” value by setting is: (1 μM test compound) “A (an enhancement ratio of greater than 1 and less than 10)”; (3 μM test compound) “A (an enhancement ratio of greater than 1 and less than 10)”; (10 μM test compound) “A (an enhancement ratio of greater than 1 and less than 10)”.

Consider `Cc1nc2cccc(O[C@H]3CC[C@H](NC(=O)C4CCC4)CC3)c2c(N)c1C(=O)O` [Compound 320], for which the “Sucrose Enhancement EC50 Ratio” value is “A (an enhancement ratio of greater than 1 and less than 10)” (1 μM test compound); “B (an enhancement ratio from 10 to 20)” (3 μM test compound); “B (an enhancement ratio from 10 to 20)” (10 μM test compound). Moreover, the “Sucralose Enhancement EC50 Ratio” value (10 μM test compound) is listed as “B (an enhancement ratio from 10 to 20)”.

As to `Cc1nc2cccc(O[C@H]3CC[C@H](NC(=O)Cc4c[nH]cn4)CC3)c2c(N)c1C(=O)O` [Compound 321], the “Sucrose Enhancement EC50 Ratio” value by setting is: (1 μM test compound) “A (an enhancement ratio of greater than 1 and less than 10)”; (3 μM test compound) “A (an enhancement ratio of greater than 1 and less than 10)”.

`CCOCC(=O)N[C@H]1CC[C@H](Oc2cccc3nc(CC)c(C(=O)O)c(N)c23)CC1` [Compound 322]: the “Sucrose Enhancement EC50 Ratio” value is “A (an enhancement ratio of greater than 1 and less than 10)” (1 μM test compound); “A (an enhancement ratio of greater than 1 and less than 10)” (3 μM test compound).

For `Cc1nc2cccc(O[C@H]3CC[C@H](NC(=O)CN4CCCC4)CC3)c2c(N)c1C(=O)O` [Compound 323], the “Sucrose Enhancement EC50 Ratio” value runs as follows: (1 μM test compound) “A (an enhancement ratio of greater than 1 and less than 10)”; (3 μM test compound) “A (an enhancement ratio of greater than 1 and less than 10)”.

With `Cc1nc2cccc(O[C@H]3CC[C@H](NC(=O)CN(C)C)CC3)c2c(N)c1C(=O)O` [Compound 324], the “Sucrose Enhancement EC50 Ratio” value (1 μM test compound) is “A (an enhancement ratio of greater than 1 and less than 10)”. Further, for the setting “3 μM test compound”, the “Sucralose Enhancement EC50 Ratio” value was “A (an enhancement ratio of greater than 1 and less than 10)”; the “Sucrose Enhancement EC50 Ratio” value is “A (an enhancement ratio of greater than 1 and less than 10)”.

With `Cc1nc2cccc(O[C@H]3CC[C@H](NC(=O)Cn4ccnc4)CC3)c2c(N)c1C(=O)O` [Compound 325], the “Sucrose Enhancement EC50 Ratio” value (1 μM test compound) is “A (an enhancement ratio of greater than 1 and less than 10)”. Also, where the note is “3 μM test compound”, the “Sucralose Enhancement EC50 Ratio” value was “A (an enhancement ratio of greater than 1 and less than 10)”; the “Sucrose Enhancement EC50 Ratio” value is given as “B (an enhancement ratio from 10 to 20)”.

With `Cc1nc2cccc(O[C@H]3CC[C@H](NC(=O)COCC4CCC4)CC3)c2c(N)c1C(=O)O` [Compound 326], the “Sucrose Enhancement EC50 Ratio” value (1 μM test compound) is “B (an enhancement ratio from 10 to 20)”.

For `Cc1nc2cccc(O[C@H]3CC[C@H](NC(=O)COc4ccccc4)CC3)c2c(N)c1C(=O)O` [Compound 327], for the setting “1 μM test compound”, the “Sucrose Enhancement EC50 Ratio” value was “A (an enhancement ratio of greater than 1 and less than 10)”.

Regarding `Cc1nc2cccc(O[C@H]3CC[C@H](NC(=O)CO[C@@H]4C[C@H](C)CC[C@H]4C(C)C)CC3)c2c(N)c1C(=O)O` [Compound 328], the “Sucrose Enhancement EC50 Ratio” value was “A (an enhancement ratio of greater than 1 and less than 10)” (1 μM test compound); “A (an enhancement ratio of greater than 1 and less than 10)” (3 μM test compound); “C (an enhancement ratio greater than 20)” (10 μM test compound).

As to `Cc1nc2cccc(O[C@H]3CC[C@H](NC(=O)COCCOC(C)C)CC3)c2c(N)c1C(=O)O` [Compound 329], where the note is “1 μM test compound”, the “Sucrose Enhancement EC50 Ratio” value is “A (an enhancement ratio of greater than 1 and less than 10)”. Also, under “3 μM test compound”, the “Sucralose Enhancement EC50 Ratio” value was “A (an enhancement ratio of greater than 1 and less than 10)”; the “Sucrose Enhancement EC50 Ratio” value is given as “B (an enhancement ratio from 10 to 20)”.
